Test results as given in patent US9044483B2, “Cell death inhibition by macrophage migration inhibitory factor and a binding substance thereto” (Takeda Pharmaceuticals Company Limited, priority 2006, dated 2015).

How the values were obtained:
[1] = target: T1, rat MIF (Rattus norvegicus, UniProt P30904, G111N); assay: Binding to rat MIF by surface plasmon resonance (BIACORE 3000), compound immobilized on sensor chip CM5; conditions: 1 μg/ml rat MIF in PBS with 0.005% Tween 20, FIG. 1, FIG. 4
T1 construct: made in house; host or cells: Escherichia coli BL21 (DE3)
Protocol: The binding of rat MIF obtained in REFERENCE EXAMPLE 2 to Compound A (cf., EXAMPLE 107 of WO 03/020719; see the formula below) was analyzed by BIACORE 3000 (manufactured by Biacore Co., Ltd.).
(§1) After Compound A was immobilized onto a sensor chip CM5 (manufactured by Biacore Co., Ltd.), phosphate buffered saline containing 0.005% Tween 20 containing 1 μg/ml of rat MIF was passed over the chip to assess changes in surface plasmon resonance signal as the binding of the compound to rat MIF.
as §1, with “The binding of rat MIF obtained in REFERENCE EXAMPLE 2 to” for “After”, “C (see the formula below) was analyzed by BIACORE 3000 (manufactured by Biacore Co., Ltd.). In a manner similar to EXPERIMENT 1(1), Compound C” for “A”, “Ltd.) and then,” for “Ltd.),”

[2] = target: T2, hMIF-P1S (Homo sapiens, UniProt P14174); assay: Binding of modified human MIF (hMIF-P1S) to immobilized Compound A by BIACORE 3000; conditions: 10 μg/ml hMIF or hMIF-P1S in HBS-EP buffer, FIG. 2
T2 construct: the region encoding MIF was amplified from human complementary DNA (cDNA) library; made in house; host or cells: Escherichia coli BL21 (DE3)
T2 sequence (P14174 with tags, fused parts or gaps): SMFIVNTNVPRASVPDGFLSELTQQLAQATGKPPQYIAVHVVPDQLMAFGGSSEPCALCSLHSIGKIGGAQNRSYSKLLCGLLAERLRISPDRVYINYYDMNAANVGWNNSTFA
Protocol: The binding of human MIF (hMIF) and modified human MIF (hMIF-P1S) obtained in REFERENCE EXAMPLE 1 to Compound A was analyzed by BIACORE 3000 (manufactured by Biacore Co., Ltd.).
(§2) After Compound A was immobilized onto a sensor chip CM5 (manufactured by Biacore Co., Ltd.), HBS-EP buffer (manufactured by Biacore Co., Ltd.) containing 10 μg/ml of hMIF or hMIF-P1S was passed over the chip to assess changes in surface plasmon resonance signal as the binding of the compound to human MIF.

[3] = target: T3, His-hMIF (Homo sapiens, UniProt P14174); assay: Binding of His-hMIF (peptide added to N terminus) to immobilized Compound A by BIACORE 3000; conditions: FIG. 5
T3 construct: the region encoding MIF was amplified from human complementary DNA (cDNA) library; made in house; host or cells: Escherichia coli BL21 (DE3)
T3 sequence (P14174 with tags, fused parts or gaps): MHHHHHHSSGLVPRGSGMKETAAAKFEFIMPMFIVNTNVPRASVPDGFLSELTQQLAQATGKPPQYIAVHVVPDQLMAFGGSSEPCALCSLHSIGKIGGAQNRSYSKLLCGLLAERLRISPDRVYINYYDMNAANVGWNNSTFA
Protocol: as §2
Similarly, the binding of Compound A to His-hMIF added with the peptide to its N terminus, obtained in REFERENCE EXAMPLE 3, was analyzed.

Row | SMILES | binding of the compound to rat MIF (changes in surface plasmon resonance signal) [1] | binding ability of Compound A to human MIF with N-terminal proline replaced by serine (hMIF-P1S), compared with hMIF [2] | binding ability of Compound A to human MIF with 30 amino acid-polypeptide containing histidine tag added to the N terminus (His-hMIF), compared with hMIF [3]
1 | Cc1cccc2c(=O)nc(-c3cccc(C(=O)NCCCCCCN)n3)sc12 [Compound C, N-(6-aminohexyl)-6-(8-methyl-4-oxo-4H-1,3-benzothiazin-2-yl)pyridine-2 carboxamide] | weaker than that of Compound A |  | 
2 | NCCCCCCNC(=O)c1cccc(-c2nc(=O)c3ccccc3s2)n1 [Compound A, N-(6-aminohexyl)-6-(4-oxo-4H-1,3-benzothiazin-2-yl)-2-pyridinecarboxamide] | strongly binds | greatly attenuated | greatly attenuated
